Results published in PubChem BioAssay AID256 (DTP/NCI, 2004).
Several values for one entry are separate records, joined by “and”; a condition that tells them apart may be missing. Equal values may be shown once. Toxic doses and inconclusive results are not listed.

System: CD2F1 mice, L1210 leukemia ip, survival T/C
Assay: NCI In Vivo Anticancer Drug Screen. Data for tumor model L1210 Leukemia (intraperitoneal) in CD2F1 (CDF1) mice
Details: higher = longer survival
Procedure, shortened: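 Compound-dosed mice with transplantable tumor versus matched vehicle controls; endpoint ratio T/C reported.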

[1] = endpoint: mean survival time, dose: 100.0 mg/kg/injection, schedule: Q04DX003 (ip), vehicle: saline with Tween-80
[2] = endpoint: mean survival time, dose: 200.0 mg/kg/injection, schedule: Q04DX003 (ip), vehicle: saline with Tween-80
[3] = endpoint: mean survival time, dose: 400.0 mg/kg/injection, schedule: Q04DX003 (ip), vehicle: saline with Tween-80

## CCCCCCCCCCC/C=C\C(C#N)C(=O)OCC (centres undefined)
[1]
  T/C: 103 % of control
[2]
  T/C: 108 % of control
[3]
  T/C: 87 % of control

## CCOP(=O)(OCC)/C(C#N)=C\c1ccc(O)c(OC)c1
[1]
  T/C: 98 % of control
[2]
  T/C: 101 % of control
[3]
  T/C: 96 % of control

## CCCCCCCCCCCCCCCCOc1ccc(C(=O)CC(=O)OC)cc1
endpoint: mean survival time, dose: 100.0 mg/kg/injection, schedule: Q01DX001 (ip), vehicle: saline with Tween-80
  T/C: 86 % of control
endpoint: mean survival time, dose: 200.0 mg/kg/injection, schedule: Q01DX001 (ip), vehicle: saline with Tween-80
  T/C: 89 % of control
endpoint: mean survival time, dose: 400.0 mg/kg/injection, schedule: Q01DX001 (ip), vehicle: saline with Tween-80
  T/C: 91 % of control

## O=c1c2c([nH]c3ccccc13)CSC2
[1]
  T/C: 92 % of control
[2]
  T/C: 87 % of control
[3]
  T/C: 94 % of control

## Nc1nc(Br)nc2c1ncn2C1CC(O)C(CO)O1 (centres undefined)
endpoint: median survival time, dose: 3.8 mg/kg/injection, schedule: Q03HX009 (ip), vehicle: saline
  T/C: 120 % of control
endpoint: median survival time, dose: 10.0 mg/kg/injection, schedule: Q03HX024 (ip), vehicle: saline
  T/C: 152 % of control
endpoint: median survival time, dose: 15.0 mg/kg/injection, schedule: Q03HX009 (ip), vehicle: water
  T/C: 163 % of control
endpoint: median survival time, dose: 20.0 mg/kg/injection, schedule: Q03HX024 (ip), vehicle: saline
  T/C: 164 % of control and 174 % of control
endpoint: median survival time, dose: 30.0 mg/kg/injection, schedule: Q03HX009 (ip), vehicle: suspension in saline
  T/C: 195 % of control
endpoint: median survival time, dose: 30.0 mg/kg/injection, schedule: Q03HX009 (ip), vehicle: water
  T/C: 237 % of control
endpoint: median survival time, dose: 30.0 mg/kg/injection, schedule: Q03HX024 (ip), vehicle: saline
  T/C: 329 % of control
endpoint: median survival time, dose: 40.0 mg/kg/injection, schedule: Q03HX024 (ip), vehicle: saline
  T/C: 728 % of control
endpoint: median survival time, dose: 53.0 mg/kg/injection, schedule: Q03DX003 (ip), vehicle: saline
  T/C: 121 % of control
endpoint: median survival time, dose: 60.0 mg/kg/injection, schedule: Q03HX009 (ip), vehicle: suspension in saline
  T/C: 243 % of control
endpoint: median survival time, dose: 60.0 mg/kg/injection, schedule: Q03HX009 (ip), vehicle: water
  T/C: 221 % of control
endpoint: median survival time, dose: 80.0 mg/kg/injection, schedule: Q03DX003 (ip), vehicle: saline
  T/C: 118 % of control
endpoint: median survival time, dose: 120.0 mg/kg/injection, schedule: Q03DX003 (ip), vehicle: saline
  T/C: 122 % of control
endpoint: median survival time, dose: 120.0 mg/kg/injection, schedule: Q03HX009 (ip), vehicle: suspension in saline
  T/C: 193 % of control

## [Cl][Pt+2][Cl].[NH-]c1ccccc1[NH-]
endpoint: mean survival time, dose: 1.25 mg/kg/injection, schedule: Q01DX009 (ip), vehicle: saline with Tween-80
  T/C: 120 % of control
endpoint: mean survival time, dose: 10.0 mg/kg/injection, schedule: Q01DX009 (ip), vehicle: saline with Tween-80
  T/C: 100 % of control

## CC(=O)Nc1ccc(C(=O)C=P(c2ccccc2)(c2ccccc2)c2ccccc2)cc1
endpoint: mean survival time, dose: 100.0 mg/kg/injection, schedule: Q01DX001 (ip), vehicle: saline
  T/C: 101 % of control
endpoint: mean survival time, dose: 200.0 mg/kg/injection, schedule: Q01DX001 (ip), vehicle: saline
  T/C: 97 % of control
endpoint: mean survival time, dose: 400.0 mg/kg/injection, schedule: Q01DX001 (ip), vehicle: saline
  T/C: 97 % of control

## CC(=O)Nc1cc(C/C(N)=N/O)cc(NC(C)=O)c1
[1]
  T/C: 100 % of control
[2]
  T/C: 103 % of control
[3]
  T/C: 111 % of control
